Where “and” joins values, the source holds several entries; their conditions need not be identical. Equal values may be shown once. Read-outs that look alike come from different tables or passages of the source.

For data set [1] the following is noted: bolus IV 5 mpk, cited from earlier work; for Brain conc / Plasma conc: WO 03/074053 data converted to nM; for Brain-to-plasma Ratio: WO 03/074053 data.
Data set [2] can be described thus: Plasma, brain and liver levels after oral gavage in C57BL/6 mice. Type of data set: in vivo, mouse. Particulars: C57BL/6 mice; for Brain/Liver Ratio / Kp at 1 h / concentration at 1 h / concentration at 1 hr: 1 hr; for Kp at 1 h: brain and plasma. From the text: Below, we first report the experimental detail for preparation and isolation of Compound III, and then the biological, in vivo data is described.

A short description of data set [3]: Plasma, brain and liver levels after bolus IV administration in nude mice.
Data set [4] is described as follows: in vivo. The settings on record: nude, mouse, iv.
For data set [5] the following is noted: mouse, in vivo, iv; for Brain-to-Liver Ratio: nude, 12 mg/kg.
The subject of data set [6] is PrP T44 Tau transgenic mice. The settings on record: treatment for 3 months; cited from earlier work.
Data set [7] concerns paclitaxel-induced peripheral neuropathy. Particulars: rats; cited from earlier work.

In the case of `CCC[C@H]1C(=O)C(C)(C)[C@@H](O)CC(=O)O[C@H](/C(C)=C/c2csc(C)n2)CC=C(C)CCC[C@H](C)[C@@H]1O` (single isomer, unassigned) [Compound III, 4,8-dihydroxy-16-(1-methyl-2-(2-methyl-4-thiazolyl)-ethenyl)-1-oxa-7-(1-propyl)-5,5,9,13-tetramethyl-cyclohexadec-13-ene-2,6-dione], the Brain conc in data set [1] (0.17 hr) is 580 nM; in data set [1] (0.67 hr), 1150 nM; in data set [2] (oral gavage 10 mpk, 5 hr), “(3.7 nM)”; in data set [2] (oral gavage 10 mpk, 7 hr), “(3.7 nM)”; in data set [2] (oral gavage 10 mpk, 24 hr), “(3.7 nM)”; in data set [2] (oral gavage 35 mpk, 24 hr), “<LLQ”. Also, the Plasma conc in data set [1] (0.17 hr) is listed as 1540 nM; in data set [1] (0.67 hr), 580 nM; in data set [2] (oral gavage 10 mpk, 24 hr) it was “(0.2 nM)”. Also, the “Brain-to-plasma Ratio” value is reported as 0.4 in data set [1] (0.17 hr), 2 in data set [1] (0.67 hr) and 1.3 in data set [1] ([…]). The brain retention entry in data set [2] (oral 10 and 35 mpk, no measureable brain levels at 24 h) is on record as “poor brain retention”. The “brain half life compared with epothilone D” value in data set [2] (oral 35 mpk, FIG. 9) is on record as “significantly shorter than epothilone D”. Also, the results for the “Brain/Liver Ratio” value in data set [2] (oral gavage 10 mpk) and in data set [2] (oral gavage 35 mpk) were 0.1 and 0.4, respectively. Moreover, the Kp at 1 h in data set [2] (mouse, 10 mg/kg, oral gavage 10 mpk, read-out: Brain/Plasma Ratio) turned out to be 0.8; in data set [2] (mouse, 35 mg/kg, oral gavage 35 mpk, read-out: Brain/Plasma Ratio), 2.3. The concentration at 1 h is 9.6 nM in data set [2] (mouse, brain, 10 mg/kg, oral gavage 10 mpk, read-out: Brain conc) and 12.3 nM in data set [2] (mouse, plasma, 10 mg/kg, oral gavage 10 mpk, read-out: Plasma conc). For the same molecule, the concentration at 1 hr in data set [2] (mouse, brain, 35 mg/kg, oral gavage 35 mpk, read-out: Brain conc) was found to be 67.7 nM; in data set [2] (mouse, plasma, 35 mg/kg, oral gavage 35 mpk, read-out: Plasma conc), 47.7 nM. Further, the concentration at 5 hr in data set [2] (mouse, brain, 35 mg/kg, oral gavage 35 mpk, 5 hr, read-out: Brain conc) amounted to 4.6 nM; in data set [2] (mouse, plasma, 10 mg/kg, oral gavage 10 mpk, 5 hr, read-out: Plasma conc) it was 1.3 nM; in data set [2] (mouse, plasma, 35 mg/kg, oral gavage 35 mpk, 5 hr, read-out: Plasma conc), 3 nM. Further, the Kp at 5 h in data set [2] (mouse, brain/plasma, 35 mg/kg, oral gavage 35 mpk, 5 hr, read-out: Brain/Plasma Ratio) turned out to be 1.4. Further, the concentration at 7 hr in data set [2] (mouse, plasma, 10 mg/kg, oral gavage 10 mpk, 7 hr, read-out: Plasma conc) worked out at 1.2 nM. Moreover, the concentration at 24 hr in data set [2] (mouse, plasma, 35 mg/kg, oral gavage 35 mpk, 24 hr, read-out: Plasma conc) worked out at 0.7 nM.

Take `C/C(=C\c1csc(CN)n1)[C@@H]1C[C@@H]2O[C@]2(C)CCC[C@H](C)[C@H](O)[C@@H](C)C(=O)C(C)(C)[C@@H](O)CC(=O)O1` [Compound II]: the “Brain-to-Liver Ratio” value came to 0.01 in data set [3] (bolus IV 1 mpk, 6 hr) and 0.02 in data set [3] (bolus IV 1 mpk, 24 hr). Besides, the “brain levels relative to peripheral tissue (ratio of brain-to-liver compound levels)” value in data set [3] (bolus IV, particularly at later times) is given as “modest brain levels relative to peripheral tissue”. In addition, the concentration at 6 h in data set [3] (nude, mouse, in vivo, iv, 1 mg/kg, Brain conc, bolus IV 1 mpk, 6 hr) was found to be 6.8 nM; in data set [3] (nude, mouse, in vivo, iv, 1 mg/kg, Plasma conc, bolus IV 1 mpk, 6 hr), 3 nM. Also, the concentration at 24 h is 1.3 nM in data set [3] (nude, mouse, in vivo, iv, 1 mg/kg, Brain conc, bolus IV 1 mpk, 24 hr) and 1 nM in data set [3] (nude, mouse, in vivo, iv, 1 mg/kg, Plasma conc, bolus IV 1 mpk, 24 hr). The Kp at 6 h in data set [3] (nude, mouse, in vivo, iv, 1 mg/kg, Brain-to-plasma Ratio, bolus IV 1 mpk, 6 hr) came out at 2.1. Also, the Kp at 24 h in data set [3] (nude, mouse, in vivo, iv, 1 mg/kg, Brain-to-plasma Ratio, bolus IV 1 mpk, 24 hr) amounted to 1.2.

In data set [4] (12 mg/kg), `C/C(=C\c1csc(C)n1)[C@@H]1C[C@@H]2O[C@]2(C)CCC[C@H](C)[C@H](O)[C@@H](C)C(=O)C(C)(C)[C@@H](O)CC(=O)N1` [Ixabepilone, (1S,3S,7S,10R,11S,12S,16R)-7,11-dihydroxy-8,8,10,12,16-pentamethyl-3-[(1E)-1-methyl-2-(2-methyl-4-thiazolyl)ethenyl]-17-oxa-4-azabicyclo[14.1.0]heptadecane-5,9-dione] displayed a Kp at 1 h of 0.73, a Kp at 2 h of 2.1, a Kp at 6 h of 7 and a Kp at 24 h of 30. In addition, in data set [4] (12 mg/kg), the Kp at […] was 0.05 and 0.16. In data set [4] (12 mg/kg, Brain conc), this molecule gave a concentration at 1 h of 284 nM, a concentration at 2 h of 360 nM, a concentration at 6 h of 371 nM and a concentration at 24 h of 236 nM. In data set [4] (12 mg/kg, Plasma conc), this molecule registered a concentration at 1 h of 390 nM, a concentration at 2 h of 171 nM, a concentration at 6 h of 53 nM and a concentration at 24 h of 8 nM. For the same molecule, in data set [5], the “brain levels relative to peripheral tissue (ratio of brain-to-liver compound levels)” value is given as “modest brain levels relative to peripheral tissue”. For the same molecule, in data set [5] (1 h), the “Brain-to-Liver Ratio” value is 0.07. For the same molecule, the “Brain-to-Liver Ratio” value in data set [5] (2 h) worked out at 0.11. Also, the “Brain-to-Liver Ratio” value in data set [5] (6 h) amounted to 0.30. Moreover, the “Brain-to-Liver Ratio” value in data set [5] (24 h) is 1.2.

As to `CC(=O)O[C@H]1C(=O)[C@@]2(C)[C@H]([C@H](OC(=O)c3ccccc3)[C@]3(O)C[C@H](OC(=O)[C@H](O)[C@@H](NC(=O)c4ccccc4)c4ccccc4)C(C)=C1C3(C)C)[C@]1(OC(C)=O)CO[C@@H]1C[C@@H]2O` [Paclitaxel, paclitaxel], in data set [6], the “Tau pathology (spheroids)” value is given as “unaffected”; the “microtubule numbers and axonal transport in the ventral roots of the spinal cord” value was “increased microtubule numbers and axonal transport”; the motor dysfunction entry is given as “reduced motor dysfunction”. For the same molecule, in data set [4] (4 mg/kg, Brain conc), the concentration at 1 h amounted to 47 nM, the concentration at 6 h is 16 nM and the concentration at 24 h was 15 nM. Besides, in data set [4] (4 mg/kg, Brain-to-plasma Ratio), the Kp at 1 h was found to be 0.1, the Kp at 6 h came out at 0.37 and the Kp at 24 h is 1.25. In data set [4] (4 mg/kg, Plasma conc), this molecule returned a concentration at 1 h of 447 nM, a concentration at 6 h of 43 nM and a concentration at 24 h of 12 nM. Further, the brain levels entry in data set [5] (4 mg/kg) is on record as “low”.

Consider NAP: a peptide of sequence NAPVSIPQ, for which the “protection against paclitaxel-induced peripheral neuropathy” value in data set [7] was “able to protect against paclitaxel-induced peripheral neuropathy”.

The values are drawn from patent publication US8673949B2 (Bristol-Myers Squibb Company, priority 2008, dated 2014).
